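Interpolation was linear, between the two tested concentrations surrounding the appropriate level; five concentrations were tested over 48 hours in 96-well plates. Definition used: TGI = concentration required for complete inhibition of growth.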

For the first experiment, the system named is HL-60(TB) leukemia. As to the kind of experiment: NCI tumour cell line growth inhibition, 48 h.
Regarding `C/C=C1\CN2CCc3c([nH]c4ccccc34)C2CC1C(=O)OC` (stereo not given), the TGI was > 32.2 µM.

The next experiment deals with HOP-18 NSCLC. Nature of the experiment: NCI tumour cell line growth inhibition, 48 h.
For the compound `CN(N=O)C(=O)ON1C(=O)CCC1=O`, the TGI is > 100 µM.
On the same count and under the same terms, the figure for `O=C1OC2(CC1C1(O)C3CC4CC(C3)CC1C4)C1CC3CC(C1)CC2C3` (stereo not given) is 35.8 µM; for `O=c1[nH]cc(COCCCO)c(=O)[nH]1` it is > 100 µM.

Another experiment has as its system HOP-62 NSCLC. Nature of the experiment: NCI tumour cell line growth inhibition, 48 h.
Consider `CN(N=O)C(=O)ON1C(=O)CCC1=O`, for which the TGI was > 100 µM.
Take `O=c1[nH]cc(COCCCO)c(=O)[nH]1`: the TGI is > 100 µM.
The same measure, in the same setting: with `C/C=C1\CN2CCc3c([nH]c4ccccc34)C2CC1C(=O)OC` (stereo not given) the figure was > 322 µM.

In a further experiment the test system is HOP-92 NSCLC. Nature of the experiment: NCI tumour cell line growth inhibition, 48 h.
On to `CN(N=O)C(=O)ON1C(=O)CCC1=O`, for which the TGI is > 100 µM.
On the same count and under the same terms, with `O=c1[nH]cc(COCCCO)c(=O)[nH]1` the figure was > 100 µM; with `C/C=C1\CN2CCc3c([nH]c4ccccc34)C2CC1C(=O)OC` (stereo not given), > 322 µM.

The next experiment relates to HT29 colon. As to the kind of experiment: NCI tumour cell line growth inhibition, 48 h.
As for `CN(N=O)C(=O)ON1C(=O)CCC1=O`, the TGI was > 100 µM.
`O=C1OC2(CC1C1(O)C3CC4CC(C3)CC1C4)C1CC3CC(C1)CC2C3` (stereo not given): the TGI was > 100 µM.
Still for that read-out and setting: the figure for `O=c1[nH]cc(COCCCO)c(=O)[nH]1` is > 100 µM; for `C/C=C1\CN2CCc3c([nH]c4ccccc34)C2CC1C(=O)OC` (stereo not given) it is > 322 µM.

The next experiment deals with IGROV1 ovarian. As to the kind of experiment: NCI tumour cell line growth inhibition, 48 h.
Consider `CN(N=O)C(=O)ON1C(=O)CCC1=O`, for which the TGI was > 100 µM.
With `O=C1OC2(CC1C1(O)C3CC4CC(C3)CC1C4)C1CC3CC(C1)CC2C3` (stereo not given), the TGI was > 100 µM.
Same read-out and setting: the figure for `O=c1[nH]cc(COCCCO)c(=O)[nH]1` is > 100 µM; for `C/C=C1\CN2CCc3c([nH]c4ccccc34)C2CC1C(=O)OC` (stereo not given) it is > 322 µM.

A further experiment relates to K-562 leukemia. As to the kind of experiment: NCI tumour cell line growth inhibition, 48 h.
Consider `CN(N=O)C(=O)ON1C(=O)CCC1=O`, for which the TGI was > 100 µM.
The same measure, in the same setting: the figure for `O=C1OC2(CC1C1(O)C3CC4CC(C3)CC1C4)C1CC3CC(C1)CC2C3` (stereo not given) is > 100 µM; for `O=c1[nH]cc(COCCCO)c(=O)[nH]1` it is > 100 µM.
Still for that read-out and setting: the figure for `C/C=C1\CN2CCc3c([nH]c4ccccc34)C2CC1C(=O)OC` (stereo not given) is > 322 µM.

Another experiment relates to KM12 colon. Nature of the experiment: NCI tumour cell line growth inhibition, 48 h.
As to `CN(N=O)C(=O)ON1C(=O)CCC1=O`, the TGI is > 100 µM.
As for `O=C1OC2(CC1C1(O)C3CC4CC(C3)CC1C4)C1CC3CC(C1)CC2C3` (stereo not given), the TGI was > 100 µM.
Still for that read-out and setting: with `O=c1[nH]cc(COCCCO)c(=O)[nH]1` the figure was > 100 µM; with `C/C=C1\CN2CCc3c([nH]c4ccccc34)C2CC1C(=O)OC` (stereo not given), > 322 µM.

The next experiment concerns KM20L2 colon. Nature of the experiment: NCI tumour cell line growth inhibition, 48 h.
With `CN(N=O)C(=O)ON1C(=O)CCC1=O`, the TGI was > 100 µM.
The same measure, in the same setting: with `O=c1[nH]cc(COCCCO)c(=O)[nH]1` the figure was > 100 µM; with `C/C=C1\CN2CCc3c([nH]c4ccccc34)C2CC1C(=O)OC` (stereo not given), > 322 µM.

A further experiment relates to LOX IMVI melanoma. Nature of the experiment: NCI tumour cell line growth inhibition, 48 h.
Consider `CN(N=O)C(=O)ON1C(=O)CCC1=O`, for which the TGI was > 100 µM.
Still for that read-out and setting: with `O=C1OC2(CC1C1(O)C3CC4CC(C3)CC1C4)C1CC3CC(C1)CC2C3` (stereo not given) the figure was > 100 µM; with `O=c1[nH]cc(COCCCO)c(=O)[nH]1`, > 100 µM; with `C/C=C1\CN2CCc3c([nH]c4ccccc34)C2CC1C(=O)OC` (stereo not given), > 322 µM.

The next experiment has as its system LXFL 529 NSCLC. Nature of the experiment: NCI tumour cell line growth inhibition, 48 h.
With `CN(N=O)C(=O)ON1C(=O)CCC1=O`, the TGI is > 100 µM.
For the compound `O=C1OC2(CC1C1(O)C3CC4CC(C3)CC1C4)C1CC3CC(C1)CC2C3` (stereo not given), the TGI was > 100 µM.
On the same count and under the same terms, with `O=c1[nH]cc(COCCCO)c(=O)[nH]1` the figure was > 100 µM; with `C/C=C1\CN2CCc3c([nH]c4ccccc34)C2CC1C(=O)OC` (stereo not given), > 322 µM.

In the next experiment the test system is M14 melanoma. As to the kind of experiment: NCI tumour cell line growth inhibition, 48 h.
Regarding `CN(N=O)C(=O)ON1C(=O)CCC1=O`, the TGI was > 100 µM.
Same read-out and setting: with `O=C1OC2(CC1C1(O)C3CC4CC(C3)CC1C4)C1CC3CC(C1)CC2C3` (stereo not given) the figure was > 100 µM; with `O=c1[nH]cc(COCCCO)c(=O)[nH]1`, > 100 µM.

Another experiment has as its system M19-MEL melanoma. Nature of the experiment: NCI tumour cell line growth inhibition, 48 h.
As for `CN(N=O)C(=O)ON1C(=O)CCC1=O`, the TGI was > 100 µM.
Same read-out and setting: the figure for `O=C1OC2(CC1C1(O)C3CC4CC(C3)CC1C4)C1CC3CC(C1)CC2C3` (stereo not given) is > 100 µM; for `O=c1[nH]cc(COCCCO)c(=O)[nH]1` it is > 100 µM.

The next experiment deals with MALME-3M melanoma. As to the kind of experiment: NCI tumour cell line growth inhibition, 48 h.
With `CN(N=O)C(=O)ON1C(=O)CCC1=O`, the TGI is > 100 µM.
As for `O=C1OC2(CC1C1(O)C3CC4CC(C3)CC1C4)C1CC3CC(C1)CC2C3` (stereo not given), the TGI was > 100 µM.
The same measure, in the same setting: the figure for `O=c1[nH]cc(COCCCO)c(=O)[nH]1` is > 100 µM.
`C/C=C1\CN2CCc3c([nH]c4ccccc34)C2CC1C(=O)OC` (stereo not given): the TGI is > 322 µM.

A further experiment has as its system MOLT-4 leukemia. Nature of the experiment: NCI tumour cell line growth inhibition, 48 h.
Turning to `CN(N=O)C(=O)ON1C(=O)CCC1=O`, the TGI is > 100 µM.
The same measure, in the same setting: the figure for `O=C1OC2(CC1C1(O)C3CC4CC(C3)CC1C4)C1CC3CC(C1)CC2C3` (stereo not given) is > 100 µM; for `O=c1[nH]cc(COCCCO)c(=O)[nH]1` it is > 100 µM.

The record behind these values is PubChem BioAssay (NCI).
